Results: patent US11643431B2, “Uses of hyaluronan conjugate” (priority 2020, dated 2023)

What was measured:
[1] = test system: SARS-CoV-2 pseudotyped lentivirus; format: cell-based
[2] = prior studies; cited from earlier work
IL-6, KC/GRO and MCP-1 = experiment: Serum IL-6 and IL-6 downstream chemokines in CT26 tumor-bearing mice; format: in vivo; conditions: nimesulide alone 1.5 mg/kg and 5.3 mg/kg i.v.
Procedure: When the tumor volumes reached 25-50 mm^3, tumor-bearing mice were randomized to six groups: vehicle control, 50 mg/kg NIM-HA (eq. 1.3 mg/kg Nim) conjugate, 100 mg/kg (eq. 2.6 mg/kg Nim) NIM-HA conjugate, 200 mg/kg (eq. 5.2 mg/kg Nim) NIM-HA conjugate, 1.5 mg/kg nimesulide, and 5.3 mg/kg nimesulide. The vehicle or test samples were i.v. injected two times weekly for two weeks.
The serum level of IL-6 and two IL-6 downstream chemokines (KC/GRO and MCP-1) were measured following conventional protocols.

SARS-CoV-2 pseudovirus = experiment: In vivo SARS-CoV-2 pseudovirus infection, lung luminescence (IVIS); set-up: species or system BALB/c mice; conditions: vs positive control
[3] = test system: IL-6 level in LPS-induced A549 cells; experiment: IL-6 level in LPS-induced A549 cells (ELISA); format: cell-based, human; conditions: 0.5 μg/mL LPS, 4.94-400 μM, 48 hours, vs LPS alone, p<0.05
Procedure: In this example, A549 cells (human alveolar basal epithelial cells) were used to assess the effect of the present NIM-HA conjugate (CA102N) on the IL-6 level.
A549 cells in 600 μL F-12K medium were seeded in a density of 5×10^4 per 24-well and incubated overnight. The next day, the medium was discarded and replaced with a fresh medium containing 1 μg/mL LPS with 0, 0.1, 0.2, 0.4 and 0.8 mg/mL CA102N (eq. 0, 5.9, 11.8, 23.6 and 47.2 μM) conjugate or 5 μg/mL (12.7 μM) dexamethasone, which was then incubated for 48 hours. Then, 300 μL of supernatants were collected, and the IL-6 level was measured using a Human IL-6 Uncoated ELISA kit (Catalogue No. 88-7066; Invitrogen). Cells not treated with LPS are used as the negative control, whereas cells treated with LPS but not CA102N are used as the positive control. The results were summarized in FIG. 3, and the data were expressed as mean±standard deviation (SD).
A549 cells in 600 μL F-12K medium were seeded in a density of 2×10^4 per 24-well and incubated overnight. […] Then, 300 μL of supernatants were collected, and the IL-6 level was measured using Human IL-6 Uncoated ELISA kit (Catalogue No. 88-7066; Invitrogen). […] The results were summarized in FIG. 4, and the data were expressed as mean±standard deviation (SD).

CS(=O)(=O)Nc1ccc([N+](=O)[O-])cc1Oc1ccccc1 [nimesulide, N-(4-nitro-2-phenoxyphenyl)methanesulfonamide]
inhibition of SARS-CoV-2 pseudovirus entry (in words) [1]: cannot inhibit SARS-CoV-2 pseudovirus infection by blocking the viral entry
hepatotoxicity [2]: significantly associated with hepatotoxicity
IL-6 blockade (IL-6, KC/GRO and MCP-1): cannot elicit any effect on IL-6 blockade
SARS-CoV-2 pseudovirus infection (lung luminescence) (SARS-CoV-2 pseudovirus; 4 mg/kg nimesulide i.v. 1 hour before intra-tracheal pseudovirus, 24 hours, p<0.05): inhibit significantly compared to the positive control

hyaluronic acid [HA]
SARS-CoV-2 pseudovirus infection (lung luminescence) (SARS-CoV-2 pseudovirus; HA group (dose not given)): no significant difference between the HA group and the positive control

CC(=O)NC1C(O)OC(CO)C(O)C1OC1OC(C(=O)Nc2ccc(NS(C)(=O)=O)c(Oc3ccccc3)c2)C(O)C(O)C1O (stereo not drawn) [NIM-HA disaccharide conjugate]
IL-6 level [3]: substantially decrease the IL-6 level in LPS-treated cells in a dose-dependent manner
